Measured values reported in ChEMBL document CHEMBL1201862, “PubChem BioAssay data set” (2004).
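Each compound was tested at five concentrations against cells in 96-well plates for 48 hours. GI50 marks 50% less growth.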 Calls of active or inactive are those of the source. Cut-off read from the data, not from the text of the source: active = GI50 up to about 1.1 µM and inactive = higher.

Assays:
Experiment in all cases: DTP human tumour cell line panel, 48 h
[1] = tested on: SN12C
[2] = tested on: NCI-H226
[3] = tested on: HT-29
[4] = tested on: SK-OV-3
[5] = tested on: T47D
[6] = tested on: BT-549
[7] = tested on: MDA-MB-435
[8] = tested on: SW-620
[9] = tested on: IGROV-1
[10] = tested on: HOP-92
[11] = tested on: SF-295
[12] = tested on: RXF 393
[13] = tested on: LOX IMVI
[14] = tested on: OVCAR-5
[15] = tested on: MCF7
[16] = tested on: HOP-62
[17] = tested on: UO-31
[18] = tested on: SF-539
[19] = tested on: A549
[20] = tested on: Hs-578T
[21] = tested on: SK-MEL-2
[22] = tested on: NCI-H23
[23] = tested on: SK-MEL-28
[24] = tested on: EKVX
[25] = tested on: MDA-N
[26] = tested on: SR
[27] = tested on: K562
[28] = tested on: NCI-H460
[29] = tested on: NCI/ADR-RES
[30] = tested on: TK-10
[31] = tested on: HCT-15
[32] = tested on: OVCAR-3
[33] = tested on: CCRF-CEM
[34] = tested on: MOLT-4
[35] = tested on: SK-MEL-5
[36] = tested on: HCC 2998
[37] = tested on: A498
[38] = tested on: U-251
[39] = tested on: CAKI-1
[40] = tested on: DU-145
[41] = tested on: PC-3
[42] = tested on: SNB-19
[43] = tested on: SNB-75
[44] = tested on: OVCAR-8
[45] = tested on: HL-60
[46] = tested on: MDA-MB-231
[47] = tested on: COLO 205
[48] = tested on: UACC-62
[49] = tested on: UACC-257
[50] = tested on: Malme-3M
[51] = tested on: M14
[52] = tested on: SF-268
[53] = tested on: HCT-116
[54] = tested on: OVCAR-4
[55] = tested on: RPMI-8226
[56] = tested on: KM12
[57] = tested on: ACHN
[58] = tested on: NCI-H522
[59] = tested on: 786-0

Measured: GI50

O=C(N[C@H]1c2ccsc2/C(=N/O)[C@H]1O)C(F)(F)F
> 100 µM: [31]
inactive: [1] > 100 µM | [2] > 100 µM | [3] > 100 µM | [4] > 100 µM | [5] > 100 µM | [6] > 100 µM | [7] > 100 µM | [8] > 100 µM | [9] > 100 µM | [10] > 100 µM | [11] > 100 µM | [12] > 100 µM | [13] > 100 µM | [14] > 100 µM | [15] > 100 µM | [16] > 100 µM | [17] > 100 µM | [18] > 100 µM | [19] > 100 µM | [20] > 100 µM | [21] > 100 µM | [22] > 100 µM | [23] > 100 µM | [24] > 100 µM | [25] > 100 µM | [26] > 100 µM | [27] > 100 µM | [28] > 100 µM | [29] > 100 µM | [30] > 100 µM | [32] > 100 µM | [33] > 100 µM | [34] > 100 µM | [35] > 100 µM | [36] > 100 µM | [37] > 100 µM | [38] > 100 µM | [39] > 100 µM | [40] > 100 µM | [41] > 100 µM | [42] > 100 µM | [43] > 100 µM | [44] > 100 µM | [45] > 100 µM | [46] > 10 µM | [47] > 100 µM | [48] > 100 µM | [49] > 100 µM | [50] > 100 µM | [51] > 100 µM | [52] > 100 µM | [53] > 100 µM

COc1cc(C2S/C(=C/c3ccccc3)C(=O)N2c2ccccn2)cc(OC)c1OC (stereo unspecified)
inactive: [1] 15.3 µM | [2] 45.9 µM | [3] 11 µM | [54] 19.2 µM | [4] 28.2 µM | [5] 7.35 µM | [6] 13.9 µM | [7] 11.5 µM | [8] 15.3 µM | [9] 11 µM | [10] 8.3 µM | [11] 24.5 µM | [12] 10 µM | [13] 9.59 µM | [14] 20.8 µM | [15] 11.7 µM | [55] 7.53 µM | [16] 18.6 µM | [17] 13.5 µM | [19] 18.5 µM | [20] 20.2 µM | [21] 30 µM | [22] 13.7 µM | [23] 23 µM | [24] 24.4 µM | [25] 14.1 µM | [56] 12.9 µM | [26] 3.02 µM | [27] 11.9 µM | [29] 19.5 µM | [30] 45.7 µM | [57] 10.5 µM | [58] 7.18 µM | [32] 12.4 µM | [33] 3.57 µM | [34] 9.55 µM | [35] 20.2 µM | [36] 15.7 µM | [37] 13.2 µM | [38] 10.2 µM | [39] 20.1 µM | [40] 10.3 µM | [41] 22.4 µM | [42] 18.1 µM | [43] 6.87 µM | [59] 14.3 µM | [44] 9.2 µM | [45] 12.4 µM | [46] 24.8 µM | [47] 29 µM | [48] 14.7 µM | [49] 33.1 µM | [50] 13.4 µM | [51] 15.1 µM | [52] 15.2 µM | [53] 7.16 µM
12.8 µM: [31]

Cc1ccc(S(=O)(=O)ON2C(=O)c3c(N)c(C#N)c(-c4ccccc4)c(-c4ccccc4)c3C2=O)cc1
17.2 µM: [31]
inactive: [1] 18.1 µM | [2] 15.9 µM | [3] 19.1 µM | [54] 21.9 µM | [4] 16.2 µM | [5] 18.2 µM | [6] 13.1 µM | [7] 9.77 µM | [8] 14.6 µM | [9] 15.8 µM | [10] 21.6 µM | [11] 20 µM | [12] 10.4 µM | [13] 15.8 µM | [14] 18 µM | [15] 16 µM | [55] 11.1 µM | [18] 21.6 µM | [19] 19.4 µM | [20] 71.3 µM | [21] 17.1 µM | [23] 15.2 µM | [24] 14.6 µM | [25] 16.4 µM | [56] 51.1 µM | [26] 8.39 µM | [27] 6.41 µM | [28] 35.6 µM | [29] 23.4 µM | [30] 17.3 µM | [57] 16.4 µM | [58] 15.6 µM | [32] 13.6 µM | [33] 3.16 µM | [34] 10.2 µM | [35] 17.1 µM | [36] 31.2 µM | [37] 20 µM | [38] 16.2 µM | [39] 16 µM | [40] 25.9 µM | [41] 15.7 µM | [42] 24 µM | [43] 36.4 µM | [59] 15.8 µM | [44] 17.6 µM | [45] 2.7 µM | [46] 19.3 µM | [47] 17.3 µM | [48] 17.1 µM | [49] 18.6 µM | [50] 21.5 µM | [51] 13.6 µM | [52] 34.3 µM | [53] 14.6 µM
